# Results: PubChem BioAssay (NCI)
# “And” between values parts separate entries of the source, which are not always exact repeats. Equal values may be shown once.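 Dose response: 5 concentrations. Exposure: 48 h. Format: 96-well plates. Endpoint: linear interpolation; highest concentration if not reached. GI50 is the concentration that inhibits growth by half. TGI: total growth inhibition.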 Where a SMILES comes first, the peptide text is derived from it. [ ]: non-standard residue; d: D form. The star is where a group is joined. ξ: configuration not given here. NMeY = CN[C@@H](Cc1ccc(O)cc1)C(=O)O; Cbz = O=C(OCc1ccccc1)*; ξA = CC(N)C(=O)O
# Legend:
# Experiment in all cases: NCI-60 cell line screen, 48 h
# [1] = tested on: TK-10 renal
# [2] = tested on: HCT-116 colon
# [3] = tested on: HOP-92 NSCLC
# [4] = tested on: SK-MEL-5 melanoma
# [5] = tested on: HL-60(TB) leukemia
# [6] = tested on: OVCAR-4 ovarian
# [7] = tested on: SNB-75 CNS
# [8] = tested on: NCI-H226 lung
# [9] = tested on: A498 renal
# [10] = tested on: SK-OV-3 ovarian
Compound,TGI [1],TGI [2],TGI [3],TGI [4],TGI [5],TGI [6],TGI [7],TGI [8],TGI [9],TGI [10],GI50 [9],GI50 [1],GI50 [2],GI50 [4],GI50 [6],GI50 [7],GI50 [3],GI50 [8],GI50 [10]
CCCCn1cc(C(=O)O)c(=O)c2c3sccc3ccc21,> 100 µM,> 100 µM,> 100 µM,> 100 µM,> 100 µM,> 100 µM,> 100 µM,> 100 µM,> 100 µM,> 100 µM,,,,,,,,,
O=C1c2ccccc2S(=O)(=O)c2ccccc21,> 100 µM,> 100 µM,> 100 µM,> 100 µM,> 100 µM,> 100 µM,> 100 µM,> 100 µM,> 100 µM,> 100 µM,,,,,,,,,
Cc1cccc(NC(=O)CC(=O)N2N=C(N3c4ccccc4Sc4ccccc43)CC2c2ccccc2)c1 (stereo not given),> 100 µM,> 100 µM,> 100 µM,> 100 µM,> 100 µM,> 100 µM,> 100 µM,> 100 µM,> 100 µM,> 100 µM,,,,,,,,,
Cc1ccc(Nc2nc(=O)[nH]c(=O)[nH]2)cc1N,> 100 µM,> 100 µM,> 100 µM,> 100 µM,> 100 µM,> 100 µM,> 100 µM,> 100 µM,> 100 µM,> 100 µM,,,,,,,,,
CN(C)c1ccc(/C=C(\NC(=O)c2ccccc2)C(=O)Nc2ccccc2C(=O)NN2C(=O)CSC2c2ccc(N(C)C)cc2)cc1 (stereo not given),,> 100 µM,> 100 µM,> 100 µM,> 100 µM,,> 100 µM,> 100 µM,> 100 µM,> 100 µM,,,,,,,,,
CCCCC[C@H](O)[C@H](C)C=C1SCCCS1,> 100 µM,> 100 µM,> 100 µM,> 100 µM,> 100 µM,> 100 µM,> 100 µM,> 100 µM,> 100 µM,> 100 µM,,,,,,,,,
COc1cn2c(cc1=O)COc1ccc(-c3ccccc3)cc1-2,> 79.8 µM,> 100 µM,> 100 µM,> 76 µM,> 100 µM,> 100 µM,> 100 µM,> 100 µM,> 100 µM,> 100 µM,33 µM,,,,,,,,
CCCCN(CCCC)C(=NCc1ccccc1)NC#N,85.2 µM,65.4 µM,33.4 µM,38.9 µM,35.7 µM,> 100 µM,95.2 µM,64.8 µM,42.6 µM,70.6 µM,,,,,,,,,
CC(=O)Oc1ccc2cc(Oc3ccc(Cl)cc3)c(=O)oc2c1,> 100 µM,> 100 µM,> 100 µM,41.9 µM,> 100 µM,> 100 µM,> 100 µM,> 100 µM,> 100 µM,,,,,,,,,,
N#Cc1c(=O)c2cccnc2n2c1[nH]c1ccccc12,> 100 µM,> 100 µM,68.4 µM,,> 100 µM,> 100 µM,> 100 µM,> 100 µM,> 100 µM,> 100 µM,,,,,,,,,
OC(CC(c1ccccc1)c1ccc(Cl)cc1)c1ccc(Cl)cc1 (stereo not given),> 100 µM,> 100 µM,64.2 µM,88.1 µM,64.6 µM,> 100 µM,81.8 µM,97.5 µM,69.1 µM,90.8 µM,,,,,,,,,
O=C(Nc1cccc2nsnc12)c1cc2c(cc1Cl)Sc1nccn1S2(=O)=O,16.3 µM,6.97 µM,25.2 µM,38.5 µM,3.72 µM,15.6 µM,35.9 µM,55.4 µM,26.5 µM,> 100 µM,,,,,,,,,
COc1ccc(C[C@@H](C(=O)NCC(N)=O)N(C)C(=O)[C@@H]2CCCN2C(=O)[C@H](CC(C)C)NC(=O)C(C)NC(=O)OCc2ccccc2)cc1 (stereo not given in full) (Cbz-[ξA]LP[NMeY](Me)G-NH2),> 100 µM,> 100 µM,> 100 µM,> 100 µM,> 100 µM,> 100 µM,> 100 µM,> 100 µM,> 100 µM,> 100 µM,,,,,,,,,
Oc1ccc2ccccc2c1-c1nnc(CCCCCCCCc2nnc(-c3c(O)ccc4ccccc34)o2)o1,> 100 µM,13.7 µM and > 50.3 µM,> 79 µM,8.59 µM and 44.2 µM,2.5 µM,25 µM,25 µM and > 100 µM,29.6 µM,25 µM and 41 µM,> 100 µM,14.2 µM,> 25 µM,0.796 µM,3.15 µM,2.35 µM,27.2 µM,,,
CC1(C)OC[C@@H](/C=C\CCO[Si](c2ccccc2)(c2ccccc2)C(C)(C)C)N1C(=O)c1ccccc1,> 100 µM,21.4 µM,52.7 µM,12 µM,14.6 µM,> 100 µM,> 100 µM,25.5 µM,44.8 µM,> 100 µM,,,,,,,,,
CCCCCCCCCCCCCCCCP(=O)(O)OP(=O)(O)OCC1OC(n2ccc(N)nc2=O)C(O)C1O (stereo not given),> 100 µM,> 100 µM and 37.4 µM,> 100 µM and 67.4 µM,> 100 µM and 34.3 µM,> 100 µM,> 100 µM,60.6 µM and 45.8 µM,> 100 µM and 78.9 µM,> 47.9 µM,> 100 µM and 72.6 µM,,,,> 100 µM and 11.2 µM,91.4 µM and 43.8 µM,,65.3 µM and 17.6 µM,64.5 µM and 21.6 µM,> 100 µM and 11 µM

Compound,TGI [1],TGI [2],TGI [3],TGI [4],TGI [5],TGI [6],TGI [7],TGI [8],TGI [9],TGI [10],GI50 [9],GI50 [1],GI50 [2],GI50 [4],GI50 [6],GI50 [7],GI50 [3],GI50 [8],GI50 [10]
C/C(=N\N=C(N)N)c1c(C(=O)OCCCCCCOC(=O)c2nc3sccn3c2/C(C)=N/N=C(N)N)nc2sccn12,55.1 µM,> 100 µM,> 100 µM,> 100 µM,> 100 µM,> 100 µM,> 100 µM,> 100 µM,> 100 µM,,,,,,,,,,
O=C(Cc1nc2ccc(C(=O)c3ccccc3)cc2[nH]c1=O)C(=O)Nc1ccccc1[N+](=O)[O-],> 100 µM,> 100 µM,> 100 µM,> 100 µM,> 100 µM,> 100 µM,> 100 µM,> 100 µM,> 100 µM,> 100 µM,,,,,,,,,
C=CCc1c(O)c2ccccc2[nH]c1=O,> 100 µM,> 100 µM,> 100 µM,> 100 µM,> 100 µM,> 100 µM,> 100 µM,> 100 µM,> 100 µM,,,,,,,,,,
O=c1oc2ccccc2cc1-c1nc2ccc([N+](=O)[O-])cc2o1,> 100 µM,> 100 µM,> 100 µM,> 100 µM,> 100 µM,,> 100 µM,> 100 µM,> 100 µM,> 100 µM,,,,,,,,,
COc1ccc(C2CC(c3c(C)nn(-c4ccccc4)c3-c3ccc(C)cc3O)=NN2c2ccccc2)cc1 (stereo not given),> 100 µM,> 100 µM,> 100 µM,> 100 µM,> 100 µM,> 100 µM,> 100 µM,> 100 µM,> 100 µM,> 100 µM,,,,,,,,,
CCOC(=O)c1c2c(n(C)c1-c1ccccc1)C(=O)C(C)=CC2=O,22.1 µM,15 µM,5.46 µM,21.5 µM,9.79 µM,20.3 µM,28.8 µM,24.9 µM,34.8 µM,30.4 µM,,,,,,,,,
COC(=O)Cc1c(C2=Nc3ccccc3C2(O)CC(=O)OC)[nH]c2ccccc12 (stereo not given),> 100 µM,> 100 µM,> 100 µM,> 100 µM,62.7 µM,,> 100 µM,> 100 µM,> 100 µM,> 100 µM,,,,,,,,,
CC1=NN(c2nc(N)nc(/C(C#N)=C/c3ccncc3)n2)C(C)(C)C1,> 100 µM,> 100 µM,> 100 µM,> 100 µM,> 100 µM,> 100 µM,> 100 µM,> 100 µM,> 100 µM,> 100 µM,,,,,,,,,
COc1cc(C2SCC(=O)N2NC(=O)c2ccc(NC(C)=O)cc2)cc(OC)c1OC (stereo not given),> 100 µM,> 100 µM,> 100 µM,> 100 µM,> 100 µM,> 100 µM,> 100 µM,> 100 µM,> 100 µM,> 100 µM,,,,,,,,,
CC1=NN(c2ccc(C)cc2)C2(C1)SCC(=O)N2c1nc2ccccc2s1 (stereo not given),74.4 µM,51.1 µM,> 100 µM,24.2 µM,36.5 µM,> 100 µM,64.7 µM,47 µM,70.6 µM,> 100 µM,,,,,,,,,
CC1(C)CC(=O)C(/C=N/c2nc(-c3ccc(Br)cc3)cs2)=C(O)C1,40.2 µM,> 100 µM,> 100 µM,> 100 µM,> 100 µM,> 100 µM,72.8 µM,> 100 µM,,> 100 µM,,,,,,,,,
O=C1CSC2(CC(/C=C/C=C/c3ccccc3)=NN2c2cccc(S(=O)(=O)O)c2)N1c1nc2ccccc2s1 (stereo not given),> 100 µM,> 100 µM,> 100 µM,> 100 µM,> 100 µM,> 100 µM,> 100 µM,> 100 µM,> 100 µM,,,,,,,,,,
Cc1cs/c(=N\C(P(=O)(O)O)P(=O)(O)O)n1C,> 100 µM,> 100 µM,> 100 µM,> 100 µM,> 100 µM,,> 100 µM,> 100 µM,> 100 µM,> 100 µM,,,,,,,,,
O=C(c1cccs1)N(C(=S)N1CCN(c2ccccc2)CC1)c1ccccc1,> 100 µM,> 100 µM,> 100 µM,> 100 µM,> 100 µM,> 100 µM,> 100 µM,> 100 µM,,> 100 µM,,,,,,,,,
Cc1ccc(-c2cc(-c3ccc(Cl)cc3)nc(/N=C3\C(=O)N(CN4CCCCC4)c4ccc(Cl)cc43)n2)cc1,71.1 µM,76.1 µM,51.2 µM,48.1 µM,62.4 µM,> 100 µM,> 100 µM,> 100 µM,42.3 µM,> 100 µM,,,,,,,,,
CN(C)CCCn1c2ccccc2c2cnccc21,84.9 µM,> 100 µM,> 100 µM,42.5 µM,99.8 µM,> 100 µM,> 100 µM,59.7 µM,> 100 µM,> 100 µM,,,,,,,,,
